Patent US5179088A, “1-Carba(dethia)cephalosporin antibiotics” (Eli Lilly and Company, priority 1990, dated 1993)

Key:
Assay type in all cases: cell-based
Parameters in all cases: unit not given here
Staphylococcus Aureus = test: in vitro antibacterial activity, agar dilution (Staphylococcus aureus)
Protocol: (§1) *minimum inhibitory concentrations were determined by the Agardilution

Staphylococcus Epi = test: in vitro antibacterial activity, agar dilution (Staphylococcus epi)
Protocol: as §1

Streptococcus A = test: in vitro antibacterial activity, agar dilution (Streptococcus A); settings: strain C203
Protocol: as §1

Streptococcus pn = test: in vitro antibacterial activity, agar dilution (Streptococcus pn); settings: strain PARK
Protocol: as §1

Streptococcus D = test: in vitro antibacterial activity, agar dilution (Streptococcus D)
Protocol: as §1

H. Influ. = test: in vitro antibacterial activity, agar dilution (H. influ.)
Protocol: as §1

E. coli = test: in vitro antibacterial activity, agar dilution (E. coli)
Protocol: as §1

Klebsiella = test: in vitro antibacterial activity, agar dilution (Klebsiella)
Protocol: as §1

Enterbacter Aerogenes = test: in vitro antibacterial activity, agar dilution (Enterobacter aerogenes)
Protocol: as §1

Enterbacter Cloacea = test: in vitro antibacterial activity, agar dilution (Enterobacter cloacae)
Protocol: as §1

Salmonella = test: in vitro antibacterial activity, agar dilution (Salmonella)
Protocol: as §1

Pseudomonas = test: in vitro antibacterial activity, agar dilution (Pseudomonas)
Protocol: as §1

Serratia = test: in vitro antibacterial activity, agar dilution (Serratia)
Protocol: as §1

Shig. sonn = test: in vitro antibacterial activity, agar dilution (Shig. sonn); settings: strain N9
Protocol: as §1

Proteus morg = test: in vitro antibacterial activity, agar dilution (Proteus morg); settings: strain PR15
Protocol: as §1

Proteus incon = test: in vitro antibacterial activity, agar dilution (Proteus incon); settings: strain PR33
Protocol: as §1

Proteus rett = test: in vitro antibacterial activity, agar dilution (Proteus rett); settings: strain C24
Protocol: as §1

Citro = test: in vitro antibacterial activity, agar dilution (Citro); settings: strain CF17
Protocol: as §1

Acin = test: in vitro antibacterial activity, agar dilution (Acin); settings: strain AC12
Protocol: as §1

| Structure (SMILES) | minimum inhibitory concentration (Staphylococcus Aureus; strain S13E) | minimum inhibitory concentration (Staphylococcus Aureus; strain V41) | minimum inhibitory concentration (Staphylococcus Aureus; strain X1.1) | minimum inhibitory concentration (Staphylococcus Aureus; strain X400) | minimum inhibitory concentration (Staphylococcus Epi; strain 222) | minimum inhibitory concentration (Staphylococcus Epi; strain 270) | minimum inhibitory concentration (Streptococcus A) | minimum inhibitory concentration (Streptococcus pn) | minimum inhibitory concentration (Streptococcus D; strain 2041) | minimum inhibitory concentration (Streptococcus D; strain X66) | minimum inhibitory concentration (H. Influ.; res, strain 76) | minimum inhibitory concentration (H. Influ.; sens, strain C.L.) | minimum inhibitory concentration (E. coli; strain EC14) | minimum inhibitory concentration (E. coli; strain N10) | minimum inhibitory concentration (Klebsiella; strain KAE) | minimum inhibitory concentration (Klebsiella; strain X26) | minimum inhibitory concentration (Klebsiella; strain X68) | minimum inhibitory concentration (Enterbacter Aerogenes; strain C32) | minimum inhibitory concentration (Enterbacter Aerogenes; strain EB17) | minimum inhibitory concentration (Enterbacter Cloacea; strain 265A) | also measured |
| --- | --- | --- | --- | --- | --- | --- | --- | --- | --- | --- | --- | --- | --- | --- | --- | --- | --- | --- | --- | --- | --- |
| CO/N=C(\C(=O)N[C@@H]1C(=O)N2C(C(=O)O)=C(c3csc(-c4ccc(F)cc4)n3)CC[C@H]12)c1csc(N)n1 [Example 37, 7β-[(2-aminothiazol-4-yl)-Z-methoximinoacetylamino]-1-carba-(1-dethia)-3-[2-(4-fluorophenyl)thiazol-4-yl]-3-cephem-4-carboxylic acid] | > 128 | 2 | 1 | > 128 | 2 | 32 | < .008 | < .008 | 4 | > 128 | .015 | .03 | .5 | 2 | 2 | < .008 | .5 | 2 | 1 | > 128 | minimum inhibitory concentration (Enterbacter Cloacea; strain EB5): 2; minimum inhibitory concentration (Salmonella; strain 1335): 2; minimum inhibitory concentration (Salmonella; strain X514): .5; minimum inhibitory concentration (Pseudomonas; strain PS18): > 128; minimum inhibitory concentration (Pseudomonas; strain PS72): > 128; minimum inhibitory concentration (Pseudomonas; strain X239): > 128; minimum inhibitory concentration (Pseudomonas; strain X528): > 128; minimum inhibitory concentration (Serratia; strain SE3): 8; minimum inhibitory concentration (Serratia; strain X99): 4; minimum inhibitory concentration (Shig. sonn): 1; minimum inhibitory concentration (Proteus morg): 2; minimum inhibitory concentration (Proteus incon): .125; minimum inhibitory concentration (Proteus rett): .125; minimum inhibitory concentration (Citro): 4; minimum inhibitory concentration (Acin): 128 |
| CO/N=C(\C(=O)N[C@@H]1C(=O)N2C(C(=O)O)=C(c3csc(C(c4ccccc4)c4ccccn4)n3)CC[C@H]12)c1csc(N)n1 (stereo partly drawn) [Example 38, 7β-[(2-aminothiazol-4-yl)-Z-methoximinoacetylamino]-1-carba-(1-dethia)-3-[2-(phenyl)(2-pyridyl)methyl)thiazol-4-yl-3-cephem-4-carboxylic acid] | > 128 | 32 | 4 | > 128 | 64 | 64 | < .008 | .015 | 8 | > 128 | .125 | 2 | 4 | 8 | 128 | .125 | 4 | 8 | 8 | > 128 | minimum inhibitory concentration (E. coli; strain TEM): 4; minimum inhibitory concentration (Enterbacter Cloacea; strain EB5): 8; minimum inhibitory concentration (Salmonella; strain 1335): 8; minimum inhibitory concentration (Salmonella; strain X514): 4; minimum inhibitory concentration (Pseudomonas; strain PS18): > 128; minimum inhibitory concentration (Pseudomonas; strain PS72): > 128; minimum inhibitory concentration (Pseudomonas; strain X239): > 128; minimum inhibitory concentration (Pseudomonas; strain X528): > 128; minimum inhibitory concentration (Serratia; strain SE3): 64; minimum inhibitory concentration (Serratia; strain X99): 8; minimum inhibitory concentration (Shig. sonn): 8; minimum inhibitory concentration (Proteus morg): 32; minimum inhibitory concentration (Proteus incon): 4; minimum inhibitory concentration (Proteus rett): 4; minimum inhibitory concentration (Citro): 32; minimum inhibitory concentration (Acin): 64 |
| CO/N=C(\C(=O)N[C@@H]1C(=O)N2C(C(=O)O)=C(c3csc(N)n3)CC[C@H]12)c1csc(N)n1 [Example 39] | > 128 | 8 | 4 | > 128 | 32 | 16 | < .008 | .015 | 8 | > 128 | .06 | .06 | .5 | 1 | 2 | .015 | .5 | 1 | .5 | > 128 | minimum inhibitory concentration (E. coli; strain TEM): .5; minimum inhibitory concentration (Enterbacter Cloacea; strain EB5): 2; minimum inhibitory concentration (Salmonella; strain 1335): 2; minimum inhibitory concentration (Salmonella; strain X514): 1; minimum inhibitory concentration (Pseudomonas; strain PS18): > 128; minimum inhibitory concentration (Pseudomonas; strain PS72): > 128; minimum inhibitory concentration (Pseudomonas; strain X239): > 128; minimum inhibitory concentration (Pseudomonas; strain X528): > 128; minimum inhibitory concentration (Serratia; strain SE3): 8; minimum inhibitory concentration (Serratia; strain X99): 1; minimum inhibitory concentration (Shig. sonn): .25; minimum inhibitory concentration (Proteus morg): 4; minimum inhibitory concentration (Proteus incon): .25; minimum inhibitory concentration (Proteus rett): .25; minimum inhibitory concentration (Citro): 8; minimum inhibitory concentration (Acin): 128 |
